In this test the test system is maternally separated mice. As to the kind of experiment: Dark/light box test in early-life stress (maternal separation) mice. The format is in vivo. The settings on record: 90 mg/kg/day in food (FIG. 39). The procedure:
At postnatal day 1, pups were culled to have 6 pups per mother. From postnatal day 1 to 14, unpredictable maternal separation (MS) of a period of 3 hours daily was carried out. Maternal separation was performed at random times (from 8 am to 2 pm) to avoid the habituation of the mother to the procedure. The protocol consisted of removing pups from their mother to another cage at room temperature for a 3 hour period, after which the pups were returned to their original nest. These groups are denoted as early-life stress in the figures. A control group of dam/pups was left undisturbed and is denoted in the figures as normal.
One week after maternal separation mice were separated into two groups. One control group received the standard mouse chow diet (Untreated), while the other group received the ellagitannin punicalagin admixed into the food and designed to deliver a dose of 90 mg/kg/day to the mice. Treatment with the diet began 1 week after the termination of the maternal separation treatment.
The effects of early-life stress on depression, anxiety and cognition were examined utilizing the following behavioral assays which were carried out 166 days after the completion of the maternal separation protocol. Normally raised mice were compared versus maternally separated mice (early-life stress) and maternally separated mice treated with punicalagin. […]

Each structure is given as a SMILES string.

For `O=C1O[C@H]2[C@@H]3OC(=O)c4cc(O)c(O)c(O)c4-c4c(O)c(O)c5oc(=O)c6c(c(O)c(O)c7oc(=O)c4c5c76)-c4c(cc(O)c(O)c4O)C(=O)OC[C@H]3OC(O)[C@@H]2OC(=O)c2cc(O)c(O)c(O)c2-c2c1cc(O)c(O)c2O` (mixture of isomers) [punicalagin, 2,3 hexahydroxydiphenoyl-4,6-gallagylglucose], the “time spent in lit area (risk-taking behavior)” value is “reversed and normalized the excessive risk-taking behavior”.

The values are drawn from US11234960B2, “Compositions and methods for improving mitochondrial function and treating neurodegenerative diseases and cognitive disorders” (Amazentis SA, priority 2010, dated 2022).
